# Test results published in patent US9233983B2, “Substituted hetero-bicyclic compounds, compositions and medicinal applications thereof” (ADVINUS THERAPEUTICS LIMITED, priority 2012, dated 2016).
# pIC50: −log10 of the molar value.
# Molecular target: human Bruton's Tyrosine Kinase (Btk) (Homo sapiens (Human), UniProt Q06187)
# Assay: Recombinant Human Bruton's Tyrosine Kinase (Btk) Inhibition Assay (HTRF KinEASE-TK)
# Type: biochemical
# Details: 20 ng/ml rhBtk, 77 μM ATP (KM), 1 μM TK-Biotin substrate, 90 min; read-out: hBTK IC50
# Sequence of human Bruton's Tyrosine Kinase (Btk) (Q06187 whole entry): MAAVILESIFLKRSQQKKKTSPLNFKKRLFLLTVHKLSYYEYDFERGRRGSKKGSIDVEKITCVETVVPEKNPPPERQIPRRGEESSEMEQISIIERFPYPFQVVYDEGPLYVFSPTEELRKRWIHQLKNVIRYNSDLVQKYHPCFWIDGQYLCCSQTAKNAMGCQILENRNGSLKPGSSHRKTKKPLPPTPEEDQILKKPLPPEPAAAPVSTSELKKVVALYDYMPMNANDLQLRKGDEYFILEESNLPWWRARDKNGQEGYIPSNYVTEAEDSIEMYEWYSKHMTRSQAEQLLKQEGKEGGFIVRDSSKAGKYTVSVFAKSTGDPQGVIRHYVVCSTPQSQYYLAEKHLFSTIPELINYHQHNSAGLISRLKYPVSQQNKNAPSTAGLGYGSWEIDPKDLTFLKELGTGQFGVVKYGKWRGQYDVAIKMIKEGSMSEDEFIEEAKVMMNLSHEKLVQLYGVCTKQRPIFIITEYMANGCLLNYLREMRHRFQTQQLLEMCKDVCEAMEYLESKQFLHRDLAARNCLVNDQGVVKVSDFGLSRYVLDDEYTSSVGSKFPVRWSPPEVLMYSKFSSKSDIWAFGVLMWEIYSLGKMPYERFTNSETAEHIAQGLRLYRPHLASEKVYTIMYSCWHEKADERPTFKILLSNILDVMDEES
row,pIC50,Structure (SMILES)
1,7.96,"CN1CC=C(c2ccc(-c3cc4c(-c5cccc(N6CCOc7cc(C8CC8)ccc7C6=O)c5CO)ccnc4[nH]3)cc2)CC1 [Example C-4, 8-cyclopropyl-4-[2-(hydroxymethyl)-3-[2-[4-(1-methyl-3,6-dihydro-2H-pyridin-4-yl)phenyl]-1H-pyrrolo[2,3-b]pyridin-4-yl]phenyl]-2,3-dihydro-1,4-benzoxazepin-5-one]"
2,7.89,"Cc1c(-c2ncnc3[nH]c(-c4cnn(C5CCN(C)CC5)c4)cc23)cccc1N1CCOc2cc(C3CC3)ccc2C1=O [Example D-2, 8-cyclopropyl-4-[2-methyl-3-[6-[1-(1-methyl-4-piperidyl)pyrazol-4-yl]-7H-pyrrolo[2,3-d]pyrimidin-4-yl]phenyl]-2,3-dihydro-1,4-benzoxazepin-5-one]"
3,8.05,"Cc1nn(C2CN(C)C2)cc1-c1cc2c(-c3cccc(N4CCOc5cc(C6CC6)ccc5C4=O)c3CO)ccnc2[nH]1 [Example E-1, 8-cyclopropyl-4-[2-(hydroxymethyl)-3-[2-[3-methyl-1-(1-methylazetidin-3-yl)pyrazol-4-yl]-1H-pyrrolo[2,3-b]pyridin-4-yl]phenyl]-2,3-dihydro-1,4-benzoxazepin-5-one]"
4,7.37,"O=C1c2ccc(C3CC3)cc2OCCN1c1cccc(-c2ccnc3[nH]c(-c4cnn(C5CCOCC5)c4)cc23)c1CO [Example F-2, 8-cyclopropyl-4-[2-(hydroxymethyl)-3-[2-(1-tetrahydropyran-4-ylpyrazol-4-yl)-1H-pyrrolo[2,3-b]pyridin-4-yl]phenyl]-2,3-dihydro-1,4-benzoxazepin-5-one]"
5,7.89,"Cc1c(-c2ncnc3[nH]c(-c4ccc(C5CCN(CCO)CC5)cc4)cc23)cccc1-n1ccc2cc(C3CC3)ccc2c1=O [Example H-1, 6-cyclopropyl-2-[3-[6-[4-[1-(2-hydroxyethyl)-4-piperidyl]phenyl]-7H-pyrrolo[2,3-d]pyrimidin-4-yl]-2-methyl-phenyl]isoquinolin-1-one]"
6,7.46,"CN1CCN(Cc2ccc(-c3cc4c(-c5cccc(N6CCOc7cc(C8CC8)cnc7C6=O)c5CO)ccnc4[nH]3)nc2)CC1 [Example I-3, 8-cyclopropyl-4-[2-(hydroxymethyl)-3-[2-[5-[(4-methylpiperazin-1-yl)methyl]-2-pyridyl]-1H-pyrrolo[2,3-b]pyridin-4-yl]phenyl]-2,3-dihydropyrido[2,3-f][1,4]oxazepin-5-one]"
7,< 6.00,"CN(C)C(=O)N1CCN(Cc2ccc(-c3cc4c(-c5cccc(N6CCOc7cc(C8CC8)ccc7C6=O)c5CO)ccnc4[nH]3)nc2)CC1 [Example I-11, 4-[[6-[4-[3-(8-cyclopropyl-5-oxo-2,3-dihydro-1,4-benzoxazepin-4-yl)-2-(hydroxymethyl)phenyl]-1H-pyrrolo[2,3-b]pyridin-2-yl]-3-pyridyl]methyl]-N,N-dimethyl-piperazine-1-carboxamide]"
8,8.89,"O=C1c2c(F)cc(C3CC3)cc2OCCN1c1cc(F)cc(-c2ccnc3[nH]c(-c4ccc(CN5CCN(C6COC6)CC5)cn4)cc23)c1CO [Example I-17, 8-cyclopropyl-6-fluoro-4-[5-fluoro-2-(hydroxymethyl)-3-[2-[5-[[4-(oxetan-3-yl)piperazin-1-yl]methyl]-2-pyridyl]-1H-pyrrolo[2,3-b]pyridin-4-yl]phenyl]-2,3-dihydro-1,4-benzoxazepin-5-one]"
9,7.38,"Cc1c(-c2ncnc3[nH]c(-c4ccc(C(=O)N5CCCC(O)C5)cc4)cc23)cccc1N1CCOc2cc(C3CC3)ccc2C1=O (centres unmarked) [Example K-3, 8-cyclopropyl-4-[3-[6-[4-(3-hydroxypiperidine-1-carbonyl)phenyl]-7H-pyrrolo[2,3-d]pyrimidin-4-yl]-2-methyl-phenyl]-2,3-dihydro-1,4-benzoxazepin-5-one]"
10,6.77,"Cc1c(-c2ncnc3[nH]c(-c4ccc(C(=O)N5CCCCC5)cc4)cc23)cccc1N1CCOc2cc(C3CC3)ccc2C1=O [Example K-5, 8-cyclopropyl-4-[2-methyl-3-[6-[4-(piperidine-1-carbonyl)phenyl]-7H-pyrrolo[2,3-d]pyrimidin-4-yl]phenyl]-2,3-dihydro-1,4-benzoxazepin-5-one]"

# The remaining lines, values behind:
row,Structure (SMILES),pIC50
1,"Cc1c(-c2ncnc3[nH]c(-c4cccc(CN5CCNCC5)c4)cc23)cccc1N1CCc2cc(C3CC3)ccc2C1=O [Example A-3, 6-cyclopropyl-2-[2-methyl-3-[6-[3-(piperazin-1-ylmethyl)phenyl]-7H-pyrrolo[2,3-d]pyrimidin-4-yl]phenyl]-3,4-dihydroisoquinolin-1-one]",6.29
2,"Cc1c(-c2ncnc3[nH]c(-c4cccc(CN5CCNCC5)c4)cc23)cccc1N1CCOc2cc(C3CC3)ccc2C1=O [Example A-4, 8-cyclopropyl-4-[2-methyl-3-[6-[3-(piperazin-l-ylmethyl)phenyl]-7H-pyrrolo[2,3-d]pyrimidin-4-yl]phenyl]-2.3-dihydro-l,4-benzoxazepin-5-one]",6.40
3,"Cc1c(-c2ncnc3[nH]c(-c4ccc(CN5CCOCC5)cc4)cc23)cccc1N1CCOc2cc(C3CC3)ccc2C1=O [Example A-5, 8-cyclopropyl-4-[2-methyl-3-[6-[4-(morpholinomethyl)phenyl]-7H-pyrrolo[2,3-d]pyrimidin-4-yl]phenyl]-2,3-dihydro-1,4-benzoxazepin-5-one]",7.04
4,"Cc1c(-c2ncnc3[nH]c(-c4ccc(CN5CCOCC5)cc4)cc23)cccc1N1CCc2cc(C3CC3)ccc2C1=O [Example A-6, 6-cyclopropyl-2-[2-methyl-3-[6-[4-(morpholinomethyl)phenyl]-7H-pyrrolo[2,3-d]pyrimidin-4-yl]phenyl]-3,4-dihydroisoquinolin-1-one]",6.84
5,"Cc1c(-c2ncnc3[nH]c(-c4cccc(CN5CCOCC5)c4)cc23)cccc1N1CCOc2cc(C3CC3)ccc2C1=O [Example A-7, 8-cyclopropyl-4-[2-methyl-3-[6-[3-(morpholinomethyl)phenyl]-7H-pyrrolo[2,3-d]pyrimidin-4-yl]phenyl]-2,3-dihydro-1,4-benzoxazepin-5-one]",6.38
6,"Cc1c(-c2ncnc3[nH]c(-c4cccc(CN5CCOCC5)c4)cc23)cccc1N1CCc2cc(C3CC3)ccc2C1=O [Example A-8, 6-cyclopropyl-2-[2-methyl-3-[6-[3-(morpholinomethyl)phenyl]-7H-pyrrolo[2,3-d]pyrimidin-4-yl]phenyl]-3,4-dihydroisoquinolin-1-one]",6.08
7,"Cc1c(-c2ncnc3[nH]c(-c4ccc(CN5CCN(C)CC5)cc4)cc23)cccc1N1CCc2cc(C3CC3)ccc2C1=O [Example B-3, 6-cyclopropyl-2-[2-methyl-3-[6-[4-[(4-methylpiperazin-1-yl)methyl]phenyl]-7H-pyrrolo[2,3-d]pyrimidin-4-yl]phenyl]-3,4-dihydroisoquinolin-1-one]",7.52
8,"CCN1CCN(Cc2ccc(-c3cc4c(-c5cccc(N6CCc7cc(C8CC8)ccc7C6=O)c5C)ncnc4[nH]3)cc2)CC1 [Example B-4, 6-cyclopropyl-2-[3-[6-[4-[(4-ethylpiperazin-1-yl)methyl]phenyl]-7H-pyrrolo[2,3-d]pyrimidin-4-yl]-2-methyl-phenyl]-3,4-dihydroisoquinolin-1-one]",7.39
9,"CN1CCN(Cc2ccc(-c3cc4c(-c5cccc(-n6ccc7cc(C8CC8)ccc7c6=O)c5CO)ncnc4[nH]3)cc2)CC1 [Example B-8, 6-cyclopropyl-2-[2-(hydroxymethyl)-3-[6-[4-[(4-methylpiperazin-1-yl)methyl]phenyl]-7H-pyrrolo[2,3-d]pyrimidin-4-yl]phenyl]isoquinolin-1-one]",8.15
10,"Cc1c(-c2ncnc3[nH]c(-c4ccc(CN5CCN(C)CC5)cc4)cc23)cccc1-n1ccc2cc(C3CC3)ccc2c1=O [Example B-9, 6-cyclopropyl-2-[2-methyl-3-[6-[4-[(4-methylpiperazin-l-yl)methyl]phenyl]-7H-pyrrolo[2,3-d]pyrimidin-4-yl]phenyl]isoquinolin-1-one]",8.00
11,"Cc1c(-c2ncnc3[nH]c(-c4ccc(CN5CCNC(=O)C5)cc4)cc23)cccc1N1CCc2cc(C3CC3)ccc2C1=O [Example B-11, 6-cyclopropyl-2-[2-methyl-3-[6-[4-[(3-oxopiperazin-1-yl)methyl]phenyl]-7H-pyrrolo[2,3-d]pyrimidin-4-yl]phenyl]-3,4-dihydroisoquinolin-1-one]",6.60
12,"Cc1c(-c2ncnc3[nH]c(-c4ccc(CN5CCC(C)(O)CC5)cc4)cc23)cccc1N1CCc2cc(C3CC3)ccc2C1=O [Example B-12, 6-cyclopropyl-2-[3-[6-[4-[(4-hydroxy-4-methyl-1-piperidyl)methyl]phenyl]-7H-pyrrolo[2,3-d]pyrimidin-4-yl]-2-rnethyl-phenyl]-3,4-dihydroisoquinolin-1-one]",6.94
13,"Cc1c(-c2ccnc3[nH]c(-c4ccc(CN5CCN(C)CC5)cc4)cc23)cccc1N1CCOc2cc(C3CC3)ccc2C1=O [Example B-15, 8-cyclopropyl-4-[2-methyl-3-[2-[4-[(4-methylpiperazin-1-yl)methyl]phenyl]-1H-pyrrolo[2,3-b]pyridin-4-yl]phenyl]-2,3-dihydro-1,4-benzoxazepin-5-one]",6.99
14,"CN1CCN(Cc2ccc(-c3cc4c(-c5cccc(N6CCOc7cc(C8CC8)ccc7C6=O)c5CO)ccnc4[nH]3)c(F)c2)CC1 [Example B-18, 8-cyclopropyl-4-[3-[2-[2-fluoro-4-[(4-methylpiperazin-1-yl)methyl]phenyl]-1H-pyrrolo[2,3-b]pyridin-4-yl]-2-(hydroxymethyl)phenyl]-2,3-dihydro-1,4-benzoxazepin-5-one]",8.05
15,"Cc1c(-c2ccnc3[nH]c(-c4ccc(CN5CCN(C)CC5)c(F)c4)cc23)cccc1N1CCOc2cc(C3CC3)ccc2C1=O [Example B-19, 8-cyclopropyl-4-[3-[2-[3-fluoro-4-[(4-methylpiperazin-1-yl)methyl]phenyl]-lH-pyrrolo[2,3-b]pyridin-4-yl]-2-methyl-phenyl]-2,3-dihydro-1,4-benzoxazepin-5-one]",6.72
16,"CCN1CCN(Cc2ccc(-c3cc4c(-c5cccc(N6CCOc7cc(C8CC8)ccc7C6=O)c5CO)ccnc4[nH]3)cn2)CC1 [Example B-21, 8-cyclopropyl-4-[3-[2-[6-[(4-ethylpiperazin-1-yl)methyl]-3-pyridyl]-1H-pyrrolo[2,3-b]pyridin-4-yl]-2-(hydroxymethyl)phenyl]-2,3-dihydro-1,4-benzoxazepin-5-one]",8.10
